The values below come from publication doi:10.1101/2021.10.07.463234v2 (biorxiv, 2021).

Where a name gives a salt, the structure may show the parent alone.

The target in the assay is SARS-CoV-2 Mac1 (Severe acute respiratory syndrome coronavirus 2, UniProt P0DTD1). Description: biochemical. As to conditions: for inhibition at 100 µM: read-out: %inhibition; for %inhibition: 100 µM, inhibitor.

As to `C[C@H]1O[C@@H](O[C@H]2[C@@H](O)C[C@H](O[C@H]3[C@@H](O)C[C@H](O[C@H]4CC[C@@]5(C)[C@H](CC[C@@H]6[C@@H]5C[C@@H](O)[C@]5(C)[C@@H](C7=CC(=O)OC7)CC[C@]65O)C4)O[C@@H]3C)O[C@@H]2C)C[C@H](O)[C@@H]1O` [Digoxin], the inhibition at 100 µM was determined as 13.2%.

Turning to `N/N=c1\[nH][nH]/c(=N\N)c2ccccc12` [Dihydralazine sulphate], the inhibition at 100 µM came out at 45.1%.

In the case of `C[C@H]1[C@@H](O)O[C@@H]2O[C@@]3(C)CC[C@H]4[C@H](C)CC[C@@H]1[C@@]24OO3` [Dihydroartemisinin (DHA)], the inhibition at 100 µM is 0%.

As to `CN[C@@H]1[C@H](O[C@H]2[C@H](O[C@H]3[C@H](O)[C@@H](O)[C@H](N=C(N)N)[C@@H](O)[C@@H]3N=C(N)N)O[C@@H](C)[C@]2(O)CO)O[C@@H](CO)[C@H](O)[C@H]1O` [Dihydrostreptomycin sulfate], the inhibition at 100 µM was determined as 6.08%.

In the case of `Oc1c(I)cc(I)c2cccnc12` [Diiodohydroxyquinoline], the inhibition at 100 µM worked out at 6.28%.

In the case of `COc1ccc([C@@H]2Sc3ccccc3N(CCN(C)C)C(=O)[C@@H]2OC(C)=O)cc1` [Diltiazem HCl], the inhibition at 100 µM is 25.7%.

Turning to `Cc1ccc2c(c1)[C@]13CCCC[C@@H]1[C@H](C2)N(C)CC3` [Dimemorfan phosphate], the inhibition at 100 µM amounted to 0%.

For `O=S(=O)(O)CCSSCCS(=O)(=O)O` [Dimesna], the inhibition at 100 µM worked out at 22.1%.

`COC(=O)/C=C/C(=O)OC` [Dimethyl Fumarate]: the inhibition at 100 µM is 23.8%.

With `Cc1c(C(N)=O)cc([N+](=O)[O-])cc1[N+](=O)[O-]` [Dinitolmide], the inhibition at 100 µM came out at 6.05%.

`CCCCC[C@H](O)/C=C/[C@@H]1[C@@H](C/C=C\CCCC(=O)O)[C@@H](O)C[C@H]1O` [Dinoprost tromethamine]: the inhibition at 100 µM was found to be 32.6%.

Regarding `COc1ccc(-c2cc(=O)c3c(O)cc(O[C@@H]4O[C@H](CO[C@@H]5O[C@@H](C)[C@H](O)[C@@H](O)[C@H]5O)[C@@H](O)[C@H](O)[C@H]4O)cc3o2)cc1O` [Diosmin], the inhibition at 100 µM turned out to be 11.9%.

Regarding `O=C(Nc1ccccc1)OCC(CN1CCCCC1)OC(=O)Nc1ccccc1` (centres unmarked) [Diperodon HCl], the inhibition at 100 µM was 0.82%.

As to `C[N+]1(C)CCC(=C(c2ccccc2)c2ccccc2)CC1` [Diphemanil Methylsulfate], the inhibition at 100 µM turned out to be 0%.

With `OC(CCCN1CCCCC1)(c1ccccc1)c1ccccc1` [Diphenidol HCl], the inhibition at 100 µM turned out to be 3%.

On to `CN1CCC(OC(c2ccccc2)c2ccccc2)CC1` [Diphenylpyraline HCl], for which the inhibition at 100 µM was found to be 0%.

In the case of `OCCN(CCO)c1nc(N2CCCCC2)c2nc(N(CCO)CCO)nc(N3CCCCC3)c2n1` [Dipyridamole], the inhibition at 100 µM was found to be 26.7%.

On to `CC[C@H]1OC(=O)[C@H](C)[C@@H](O[C@H]2C[C@@](C)(OC)[C@@H](O)[C@H](C)O2)[C@H](C)[C@@H](O[C@@H]2O[C@H](C)C[C@H](N(C)C)[C@H]2O)[C@](C)(O)C[C@@H](C)[C@@H]2N[C@@H](COCCOC)O[C@H]([C@H]2C)[C@]1(C)O` [Dirithromycin], for which the inhibition at 100 µM was 28.8%.

On to `O=C(O)c1cc(=O)c2c(OCC(O)COc3cccc4oc(C(=O)O)cc(=O)c34)cccc2o1` [Disodium Cromoglycate], for which the inhibition at 100 µM was determined as 3.63%.

On to `CC(C)N(CCC(C(N)=O)(c1ccccc1)c1ccccn1)C(C)C` (centres unmarked) [Disopyramide Phosphate], for which the “%inhibition” value was determined as 0%.

For `CC(C)N(CCC(C(N)=O)(c1ccccc1)c1ccccn1)C(C)C` (centres unmarked) [Disopyramide], the “%inhibition” value stood at 8.31%.

As for `CCN(CC)C(=S)SSC(=S)N(CC)CC` [Disulfiram], the “%inhibition” value was found to be 0%.

In the case of `O=C1c2c(O)cccc2Cc2cccc(O)c21` [Dithranol], the inhibition at 100 µM was found to be 18.7%.

In the case of `CCCC(CCC)C(=O)O` [Divalproex Sodium], the “%inhibition” value is listed as 5.124%.

On to `CC(=O)O[C@@]12CO[C@@H]1C[C@H](O)[C@@]1(C)C(=O)[C@H](O)C3=C(C)[C@@H](OC(=O)[C@H](O)[C@@H](NC(=O)OC(C)(C)C)c4ccccc4)C[C@@](O)([C@@H](OC(=O)c4ccccc4)[C@H]21)C3(C)C` [Docetaxel Trihydrate], for which the “%inhibition” value is recorded as 6.628%.

In the case of `CC(=O)O[C@@]12CO[C@@H]1C[C@H](O)[C@@]1(C)C(=O)[C@H](O)C3=C(C)[C@@H](OC(=O)[C@H](O)[C@@H](NC(=O)OC(C)(C)C)c4ccccc4)C[C@@](O)([C@@H](OC(=O)c4ccccc4)[C@H]21)C3(C)C` [Docetaxel], the inhibition at 100 µM turned out to be 11.6%.

Turning to `CCCCC(CC)COC(=O)CC(C(=O)OCC(CC)CCCC)S(=O)(=O)O` (centres unmarked) [Docusate Sodium], the inhibition at 100 µM was 14.3%.

In the case of `CN(CCOc1ccc(NS(C)(=O)=O)cc1)CCc1ccc(NS(C)(=O)=O)cc1` [Dofetilide], the inhibition at 100 µM came out at 8.13%.

As for `O=C(O[C@@H]1C[C@@H]2C[C@H]3C[C@H](C1)N2CC3=O)c1c[nH]c2ccccc12` [Dolasetron], the inhibition at 100 µM is 7.05%.

With `C[C@@H]1CCO[C@H]2Cn3cc(C(=O)NCc4ccc(F)cc4F)c(=O)c(O)c3C(=O)N12` [Dolutegravir (GSK1349572)], the inhibition at 100 µM came out at 9.9%.

As for `CCCCCCCCCCCC[N+](C)(C)CCOc1ccccc1` [Domiphen Bromide], the inhibition at 100 µM stood at 0.79%.

As to `COc1cc2c(cc1OC)C(=O)C(CC1CCN(Cc3ccccc3)CC1)C2` (centres unmarked) [Donepezil HCl], the “%inhibition” value was 0%.

On to `COc1cc2c(cc1OC)C(=O)C(CC1CCN(Cc3ccccc3)CC1)C2` (centres unmarked) [Donepezil], for which the “%inhibition” value is reported as 5.95%.

On to `NCCc1ccc(O)c(O)c1` [Dopamine HCl], for which the inhibition at 100 µM stood at 39.1%.

Turning to `Cc1ccc(-n2nc(C(C)(C)C)cc2NC(=O)Nc2ccc(OCCN3CCOCC3)c3ccccc23)cc1` [Doramapimod (BIRB 796)], the inhibition at 100 µM stood at 0%.

As for `C[C@@H](O)[C@H]1C(=O)N2C(C(=O)O)=C(S[C@@H]3CN[C@H](CNS(N)(=O)=O)C3)[C@H](C)[C@H]12` [Doripenem Hydrate], the “%inhibition” value amounted to 0%.

For `C[C@@H](O)[C@H]1C(=O)N2C(C(=O)O)=C(S[C@@H]3CN[C@H](CNS(N)(=O)=O)C3)[C@H](C)[C@H]12` [Doripenem], the “%inhibition” value is recorded as 1.128%.

For the compound `CN1CCN(c2ccc3nc(-c4c(N)c5c(F)cccc5[nH]c4=O)[nH]c3c2)CC1` [Dovitinib (TKI258) Lactate], the “%inhibition” value is listed as 26.03%.

Take `CN1CCN(c2ccc3nc(-c4c(N)c5c(F)cccc5[nH]c4=O)[nH]c3c2)CC1` [Dovitinib (TKI-258, CHIR-258)]: the “%inhibition” value was 50.41%.

`CCN1CC(CCN2CCOCC2)C(c2ccccc2)(c2ccccc2)C1=O` (centres unmarked) [Doxapram HCl]: the “%inhibition” value came to 9.802%.

For `CCN1CC(CCN2CCOCC2)C(c2ccccc2)(c2ccccc2)C1=O` (centres unmarked) [Doxapram], the “%inhibition” value was 4.735%.

Turning to `COc1cc2nc(N3CCN(C(=O)C4COc5ccccc5O4)CC3)nc(N)c2cc1OC` (centres unmarked) [Doxazosin Mesylate], the inhibition at 100 µM turned out to be 14.6%.

Regarding `C=C1/C(=C\C=C2/CCC[C@]3(C)[C@@H]([C@H](C)/C=C/[C@H](C)C(C)C)CC[C@@H]23)C[C@@H](O)C[C@@H]1O` [Doxercalciferol], the inhibition at 100 µM was 0%.

On to `C[C@H]1O[C@@H](n2cc(F)c(=O)[nH]c2=O)[C@H](O)[C@@H]1O` [Doxifluridine], for which the inhibition at 100 µM turned out to be 0%.

For `Cn1c(=O)c2c(ncn2CC2OCCO2)n(C)c1=O` [Doxofylline], the inhibition at 100 µM is 1.49%.

In the case of `COc1cccc2c1C(=O)c1c(O)c3c(c(O)c1C2=O)CC(O)(C(=O)CO)CC3OC1CC(N)C(O)C(C)O1` (centres unmarked) [Doxorubicin (Adriamycin) HCl], the inhibition at 100 µM was 18.3%.

In the case of `C[C@H]1c2cccc(O)c2C(=O)C2=C(O)[C@]3(O)C(=O)C(C(N)=O)=C(O)[C@@H](N(C)C)[C@@H]3[C@@H](O)[C@@H]21` [Doxycycline Hyclate], the “%inhibition” value was determined as 21.8%.

Take `C[C@H]1c2cccc(O)c2C(=O)C2=C(O)[C@]3(O)C(=O)C(C(N)=O)=C(O)[C@@H](N(C)C)[C@@H]3[C@@H](O)[C@@H]21` [Doxycycline]: the “%inhibition” value was 4.525%.

With `CN(C)CCOC(C)(c1ccccc1)c1ccccn1` (centres unmarked) [Doxylamine Succinate], the inhibition at 100 µM amounted to 4.4%.

As for `CCCCc1oc2ccc(NS(C)(=O)=O)cc2c1C(=O)c1ccc(OCCCN(CCCC)CCCC)cc1` [Dronedarone HCl], the inhibition at 100 µM was determined as 0%.

`O=C(CCCN1CC=C(n2c(=O)[nH]c3ccccc32)CC1)c1ccc(F)cc1` [Droperidol]: the inhibition at 100 µM was found to be 1.08%.

`OCC(O)CN1CCN(c2ccccc2)CC1` (centres unmarked) [Dropropizine]: the inhibition at 100 µM turned out to be 20.7%.

As for `C[C@]12CCC(=O)C=C1[C@@H]1C[C@@H]1[C@H]1[C@@H]3[C@@H]4C[C@@H]4[C@@]4(CCC(=O)O4)[C@@]3(C)CC[C@@H]12` [Drospirenone], the inhibition at 100 µM is 0%.

In the case of `CNCC[C@H](Oc1cccc2ccccc12)c1cccs1` [Duloxetine HCl], the “%inhibition” value is reported as 0%.

On to `CNCC[C@H](Oc1cccc2ccccc12)c1cccs1` [Duloxetine], for which the “%inhibition” value was 8.877%.

In the case of `C[C@]12C=CC(=O)N[C@@H]1CC[C@@H]1[C@@H]2CC[C@]2(C)[C@@H](C(=O)Nc3cc(C(F)(F)F)ccc3C(F)(F)F)CC[C@@H]12` [Dutasteride], the inhibition at 100 µM was determined as 12%.

Regarding `C[C@H](Nc1ncnc2nc[nH]c12)c1cc2cccc(Cl)c2c(=O)n1-c1ccccc1` [Duvelisib (IPI-145, INK1197)], the inhibition at 100 µM amounted to 2.52%.

As for `CCCCOc1ccc(C(=O)CCN2CCCCC2)cc1` [Dyclonine HCl], the inhibition at 100 µM was found to be 0%.

As for `Cn1c(=O)c2c(ncn2CC(O)CO)n(C)c1=O` (centres unmarked) [Dyphylline], the inhibition at 100 µM was 0.0817%.

`CC(C)c1cc2c(cc1S(=O)(=O)O)[C@@]1(C)CCC[C@@](C)(C(=O)O)[C@@H]1CC2` [Ecabet sodium]: the inhibition at 100 µM was 10.4%.

For the compound `CC1=NN(c2ccccc2)C(=O)C1` [Edaravone], the inhibition at 100 µM amounted to 5.75%.

As to `CN1CCc2nc(C(=O)N[C@@H]3C[C@@H](C(=O)N(C)C)CC[C@@H]3NC(=O)C(=O)Nc3ccc(Cl)cn3)sc2C1` [Edoxaban tosylate Monohydrate], the “%inhibition” value was 20.23%.
